From publication PMC8780741, “Integration of In Silico, In Vitro and In Situ Tools for the Preformulation and Characterization of a Novel Cardio-Neuroprotective Compound during the Early Stages of Drug Development” (Pharmaceutics, 2022)
Where two headings read alike, the source gives them in different places.

How the values were obtained:
[1] = Human oral fraction absorbed estimated from rat intestinal permeability; conditions: calculated from rat permeability values in all segments (whole small intestine)
From the text: The permeability values obtained in the different intestinal sections (See Table 4) corroborate the results obtained in the cell lines. […] This supports that if a compound has a high absorbed dose fraction, it will have a high-permeability, not necessarily in the jejunum, but somewhere along the relevant intestinal absortive regions. Correlations between permeability values in the rat small intestine (whole or segments) obtained by Doluisio’s method and their correlation with the orally absorbed fraction in humans were previously published. In fact, Fabs can be calculated considering the permeability values in all segments (whole small intestine) and the estimated oral absorbed fraction was 85.12%. According to this property, the drug may be a good candidate to be formulated for oral administration.

[2] = Provisional BCS classification; set-up: key: drugs with high solubility/high permeability (Class 1); drugs with low solubility/high permeability (Class 2); drugs with high solubility/low permeability (Class 3); drugs with low solubility/low permeability (Class 4)
From the text: The Biopharmaceutics Classification System (BCS) is a widely used scientific framework for waiver of in vivo bioequivalence studies, as well as for decision-making in drug discovery and development. This tool classifies drug substances according to solubility/dosage and permeability values as follows: drugs with high solubility/high permeability (Class 1), drugs with low solubility/high permeability (Class 2), drugs with high solubility/low permeability (Class 3) and drugs with low solubility/low permeability (Class 4). BCS has proven to be a very important tool for the identification of compounds whose solubility and absorption characteristics may be sensitive to physiological and formulation variables, allowing early optimization in the preformulation stages from the knowledge of the physicochemical properties of the active pharmaceutical ingredient (API). In this sense, it is evident that new compounds with low permeability and solubility/dissolution will have low and highly variable oral bioavailability, which may limit the chances of developing a clinically useful product.
Different provisional biopharmaceutical classification systems have been described in the literature. They mainly use alternative methodologies to predict intestinal permeability. Following the proposal of Kasim et al., JM-20 is a BCS Class 2, based on the aqueous solubility value at room temperature and in silico partition coefficients (log P and ClogP). JM-20 is also classified as BCS class 2 compound by the method proposed by Pham-The et al. where a provisional biopharmaceutical classification was developed based on solubility data (dose number, Do) and predicted or measured permeability in Caco-2 cells. At the same time, permeability values of JM-20 obtained with in vitro cell lines and in situ perfusion in rat were considered for the biopharmaceutical classification of this compound.

[3] = test system: rat small intestine; assay: In situ closed-loop (Doluisio) intestinal perfusion; format: in vivo; conditions: 100 µM, n = 4
Description: The animal experiments, performed on 250–300 g male Wistar rats, were designed following the guidelines described in EC Directive 86/609, Council of the Europe Convention ETS 123 and Spanish national laws about the use of animals in research, and were approved by the Spanish Committee (Spain, code A1330354541263).
The “closed-loop” in situ perfusion method, based on the Doluisio technique, was performed according to published reports. Briefly, in anesthetized rats in which an abdominal incision was made, the small intestine was located and the bile duct was ligated avoiding enterohepatic circulation of the drug. The procedure for making three loops in the duodenum, jejunum, and ileum was the same as previously described. Intestinal contents were removed by washing with physiological solutions and the peritoneal cavity was covered with cotton wool pads to prevent evaporation of peritoneal fluid and loss of body heat.
A solution of JM-20 (100 µM) was perfused with one syringe, and 5 min later the sample was collected with the other syringe. This procedure was performed alternatively for 30 min to ensure mixing of the solution in the lumen of small intestine. Samples were immediately analyzed for JM-20 at maximum wavelengths (λmax = 262 nm) by HPLC (Alliance-Waters 2695) using a Nova-Pak C18 column (4 μM, 3.9 × 150 mm) and UV detector (Waters 2487). The analytical procedure was as follows previously validated. The exact length of the intestine was determined at the end of the study.
The calculation of permeability takes into account that water flux during the experiment can be significant, the drug concentration in each sample was modified according to the following Equation (3):(3) C=CeVT/V0 where Ct represents the concentration without water reabsorption at time t, Ce is the experimental concentration value, V0 is the initial volume and Vt is the final volume. The coefficient of absorption rate (ka) and the initial concentration of JM-20 available for absorption (C0) were determined by non-linear regression of the following Equation (4):(4) Ct=C0·e^−kat […]

[4] = Refinement of intrinsic and salt solubility with pDISOL-X
From the text: To develop a solution speciation model, the experimental data of log S—pH were used as input into the computer program pDISOL-X [30]. The computational algorithm considers the contributions of all species present in solution, including all buffer components. The program derives its own implicit solubility equations internally, given any practical number of equilibria and estimated constants. The equilibrium constants are subsequently refined by weighted nonlinear least-squares regression. The method can test for the presence of specific buffer drug species. The program assumes an initial condition of a suspension of the solid drug in a solution, ideally with the suspension saturated over a wide range of pH. The software calculates the species distribution as a consequence of a sequence of additions of standardized strong-acid titrant HCl to simulate the suspension pH-speciation down to pH ~ 0, the staging point for the subsequent operation. […] The ionic strength is rigorously calculated at each step, and pKa values (as well as the solubility products and the aggregation and complexation constants) are adjusted accordingly. At the end of the pH-speciation simulation, the calculated log S vs. pH curve is compared to log S vs. pH measured. A log S-weighted nonlinear least squares refinement begins to refine the proposed equilibrium model, using analytical expressions for the differential equations. The process is repeated until the differences between calculated and measured log S values reach a minimum.

## CCOC(=O)C1=C(C)NC2=C(C=Nc3ccccc3N2)C1c1ccccc1[N+](=O)[O-] (stereo not drawn) [JM-20, 3-ethoxycarbonyl-2-methyl-4-(2-nitrophenyl)-4,11-dihydro-1H-pyrido [2,3-b][1,5] benzodiazepine]
[1]
  Estimated oral absorbed fraction (Fabs) in humans: 85.12%
[2]; BCS class from dose number and Caco-2 permeability
  BCSCaco-2: 2
[2]; BCS class from dose number and MDCK permeability
  BCSMDCK: 2
[2]; BCS class from dose number and rat in situ permeability
  BCSrat: 2
[2]; overall provisional BCS class
  BCSGlobal: 2
[3]; Duodenum
  Peff ± SD: 9.20 ± 0.89 ×10^−5 cm/s
[3]; Ileum
  Peff ± SD: 6.82 ± 1.44 ×10^−5 cm/s
[3]; Jejunum
  Peff ± SD: 6.63 ± 1.30 ×10^−5 cm/s
[4]; 37 °C, read-out: So, intrinsic solubility calculated by pDISOL-X
  solubility: 12 µg/mL
[4]; aqueous buffer, pH 3.5, 37 °C, read-out: Solubility calculated by pDISOL-X
  solubility: 14.3 µg/mL
[4]; aqueous buffer, pH 4.0, 37 °C, read-out: Solubility calculated by pDISOL-X
  solubility: 18.9 µg/mL
[4]; aqueous buffer, pH 4.5, 37 °C, read-out: Solubility calculated by pDISOL-X
  solubility: 74.9 µg/mL
[4]; aqueous buffer, pH 6.8, 37 °C, read-out: Solubility calculated by pDISOL-X
  solubility: 12.5 µg/mL
[4]; aqueous buffer, pH 7.4, 37 °C, read-out: Solubility calculated by pDISOL-X
  solubility: 11.9 µg/mL
[4]; pH 1.2, 37 °C, read-out: Solubility calculated by pDISOL-X
  solubility: 3.3 µg/mL
